Assay results reported in PubChem BioAssay AID1259411 (Chemical Carcinogenesis Research Information System (CCRIS), 2018).
The source made the active and inactive calls. How the calls were made is not given here.

Test system: rodent carcinogenicity bioassays, tumor incidence
Assay: CCRIS carcinogenicity studies
In short: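 NCI-built, expert-reviewed records of carcinogenicity and related test outcomes (mutagenicity, tumor promotion/inhibition) compiled from published and report sources, historical span 1985-2011, not updated.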

SMILES: Cc1cccc(Nc2cc(Cl)nc(SCC(=O)O)n2)c1C
- carcinogen call (Species: MOUSE, Strain/Sex: STRAIN-CS/MALE, Route: ORAL, Dose: 0.1% (W/W) IN DIET FOR 6 MO THEN 0.05% IN DIET FOR 8.5 MO, Tumor Site: Type of Lesion: LIVER: HEPATOCELLULAR CARCINOMA): active; positive
- carcinogen call (Species: RAT, Strain/Sex: CD-1/MALE, Route: ORAL, Dose: 0, 50 PPM IN DIET FOR 43 WK FOLLOWED BY 25 PPM IN FEED FOR 61 WK (STUDY DURATION: 2 YR), Tumor Site: Type of Lesion: LIVER: ADENOMA, ADENOMA OR CARCINOMA, TESTES: LEYDIG CELL ADENOMA, PANCREAS: ACINAR CELL ADENOMA OR CARCINOMA, Tumor Site: Type of Lesion: LIVER: ADENOMA, ADENOMA OR CARCINOMA, TESTES: LEYDIG CELL ADENOMA, PANCREAS: ACINAR CELL ADENOMA OR CARCINOMA): active; positive
- carcinogen call (Species: RAT, Strain/Sex: F344/MALE, Route: ORAL, Dose: 0, 0.05, 0.10% IN DIET STARTED AT 2 MO OF AGE FOR STUDY DURATION (STUDY DURATION: 22 WK), Dose: 0, 0.05, 0.10% IN DIET STARTED AT 2 MO OF AGE FOR STUDY DURATION (STUDY DURATION: 22 WK), Tumor Site: Type of Lesion: LIVER: HEPATOCELLULAR CARCINOMA, HEPATOCELLULAR ADENOMA): active; positive
- carcinogen call (Species: RAT, Strain/Sex: F344/MALE, Route: ORAL, Dose: 0.00, 0.05, 0.10% IN DIET STARTED AT 15 MO OF AGE FOR STUDY DURATION (STUDY DURATION: 22 WK), Dose: 0.00, 0.05, 0.10% IN DIET STARTED AT 15 MO OF AGE FOR STUDY DURATION (STUDY DURATION: 22 WK), Tumor Site: Type of Lesion: LIVER: HEPATOCELLULAR CARCINOMA, HEPATOCELLULAR ADENOMA): active; positive
- carcinogen call (Species: RAT, Strain/Sex: F344/MALE, Route: ORAL, Dose: 0, 0.1% IN DIET FOR 22 WK (STUDY DURATION: 22 WK)): inactive; negative
- carcinogen call (Species: RAT, Strain/Sex: F344/MALE, Route: ORAL, Dose: 0, 0.1% IN DIET FOR 22 WK FOLLOWED BY BASAL DIET UNTIL TERMINATION AT 37, 52, OR 104 WK, RESPECTIVELY (STUDY DURATION: 3): inactive; negative
- carcinogen call (Species: RAT, Strain/Sex: F344/MALE, Route: ORAL, Dose: 0, 0.1% IN DIET FOR 37 WK (STUDY DURATION: 37 WK), Tumor Site: Type of Lesion: LIVER: HEPATOCELLULAR ADENOMA): active; positive
- carcinogen call (Species: RAT, Strain/Sex: F344/MALE, Route: ORAL, Dose: 0, 0.1% IN DIET FOR 37 WK FOLLOWED BY BASAL DIET UNTIL TERMINATION AT 52 OR 104 WK (STUDY DURATION: 52 OR 104 WK)): inactive; negative
- carcinogen call (Species: RAT, Strain/Sex: F344/MALE, Route: ORAL, Dose: 0, 0.1% IN DIET FOR 52 WK (STUDY DURATION: 52 WK), Tumor Site: Type of Lesion: LIVER: HEPATOCELLULAR ADENOMA, HEPATOCELLULAR CARCINOMA): active; positive
- carcinogen call (Species: RAT, Strain/Sex: F344/MALE, Route: ORAL, Dose: 0, 0.1% IN DIET FOR 52 WK FOLLOWED BY BASAL DIET UNTIL TERMINATION AT 104 WK (STUDY DURATION: 104 WK), Tumor Site: Type of Lesion: LIVER: HEPATOCELLULAR ADENOMA OR CARCINOMA): active; positive
- carcinogen call (Species: RAT, Strain/Sex: F344/MALE, Route: ORAL, Dose: 0, 0.1% IN DIET FOR 78 WK (STUDY DURATION: 78 WK), Tumor Site: Type of Lesion: LIVER: NEOPLASM): active; positive
- carcinogen call (Species: RAT, Strain/Sex: F344/MALE, Route: ORAL, Dose: 0.1% (W/W) IN DIET FOR 16 MO, Tumor Site: Type of Lesion: LIVER: HEPATOCELLULAR CARCINOMA): active; positive
- carcinogen call (Species: RAT, Strain/Sex: F344/MALE, Route: ORAL, Dose: 0.1% IN DIET FOR 11 WK FOLLOWED BY CONTROL DIET FOR DURATION OF STUDY (STUDY DURATION: 56 WK)): inactive; negative
- carcinogen call (Species: RAT, Strain/Sex: F344/MALE, Route: ORAL, Dose: 0.1% IN DIET FOR 43 WK (STUDY DURATION: 56 WK), Tumor Site: Type of Lesion: LIVER: HEPATOCELLULAR CARCINOMA): active; positive
- carcinogen call (Species: RAT, Strain/Sex: F344/MALE, Route: ORAL, Dose: 0.1% IN DIET FOR 54 WK (STUDY DURATION: 56 WK), Tumor Site: Type of Lesion: LIVER: HEPATOCELLULAR CARCINOMA): active; positive
- carcinogen call (Species: RAT, Strain/Sex: F344/MALE, Route: ORAL, Dose: 0.2% (W/W) IN DIET FOR 65 WK, Tumor Site: Type of Lesion: LIVER: HEPATOCELLULAR CARCINOMA): active; positive

SMILES: CCOC(=O)CC(SP(=O)(OC)OC)C(=O)OCC (stereo not drawn)
- carcinogen call (Species: MOUSE, Strain/Sex: B6C3F1/FEMALE, Route: ORAL, Dose: 0, 500, 1000 PPM IN DIET, Dose: 0, 500, 1000 PPM IN DIET): inactive; negative
- carcinogen call (Species: MOUSE, Strain/Sex: B6C3F1/MALE, Route: ORAL, Dose: 0, 500, 1000 PPM IN DIET, Dose: 0, 500, 1000 PPM IN DIET): inactive; negative
- carcinogen call (Species: RAT, Strain/Sex: F344/FEMALE, Route: ORAL, Dose: 0, 500, 1000 PPM IN DIET, Dose: 0, 500, 1000 PPM IN DIET): inactive; negative
- carcinogen call (Species: RAT, Strain/Sex: F344/MALE, Route: ORAL, Dose: 0, 500, 1000 PPM IN DIET, Dose: 0, 500, 1000 PPM IN DIET): inactive; negative

SMILES: C#C[C@]1(O)CC[C@H]2[C@@H]3CCc4cc(O)ccc4[C@H]3CC[C@@]21C
- carcinogen call (Species: MOUSE, Route: ORAL, Tumor Site: Type of Lesion: CERVIX, MAMMARY GLAND, PITUITARY GLAND, UTERUS, Tumor Site: Type of Lesion: CERVIX, MAMMARY GLAND, PITUITARY GLAND, UTERUS): active; positive
- carcinogen call (Species: MOUSE, Strain/Sex: CD-1/FEMALE, Route: SUBCUTANEOUS, Dose: 0, 2 UG/D IN CORN OIL ON DAYS 1-5 OF LIFE (STUDY DURATION: 12-18 WK), Tumor Site: Type of Lesion: UTERUS: ADENOCARCINOMA): active; positive
- carcinogen call (Species: RAT, Route: ORAL, SUBCUTANEOUS, Tumor Site: Type of Lesion: LIVER): active; positive
- carcinogen call (Species: Rat, Strain/Sex: Sprague-Dawley/Female (50/Group), Route: Oral, Dose: 0, 2, 10, 50 ppb in diet, continuous exposure from conception through 2 yr, Dose: 0, 2, 10): inactive; negative
- carcinogen call (Species: Rat, Strain/Sex: Sprague-Dawley/Female (50/Group), Route: Oral, Dose: 0, 2, 10, 50 ppb in diet, continuous exposure from conception through PND 140, followed by control diet to 2 yr, Dose: 0, 2, 10): inactive; negative (authors describe as equivocal evidence based on stromal polyp (2/51, 5
- carcinogen call (Species: Rat, Strain/Sex: Sprague-Dawley/Male (50/Group), Route: Oral, Dose: 0, 2, 10, 50 ppb in diet, continuous exposure from conception through 2 yr, Dose: 0, 2, 10): inactive; negative
- carcinogen call (Species: Rat, Strain/Sex: Sprague-Dawley/Male (50/Group), Route: Oral, Dose: 0, 2, 10, 50 ppb in diet, continuous exposure from conception through PND 140, followed by control diet to 2 yr, Dose: 0, 2, 10): inactive; negative

SMILES: OCC(CO)NC1CC(O)(CO)C(O)C(O)C1O (stereo not drawn)
- carcinogen call (Species: MOUSE, Strain/Sex: CD-1/FEMALE, Route: GAVAGE, Dose: 0, 15, 50, 150 MG/KG/D IN DISTILLED WATER (STUDY DURATION: 105 WK), Dose: 0, 15, 50, 150 MG/KG/D IN DISTILLED WATER (STUDY DURATION: 105 WK)): inactive; negative
- carcinogen call (Species: MOUSE, Strain/Sex: CD-1/MALE, Route: GAVAGE, Dose: 0, 15, 50, 150 MG/KG/D IN DISTILLED WATER (STUDY DURATION: 105 WK), Dose: 0, 15, 50, 150 MG/KG/D IN DISTILLED WATER (STUDY DURATION: 105 WK)): inactive; negative
- carcinogen call (Species: RAT, Strain/Sex: F344/FEMALE, Route: GAVAGE, Dose: 0, 3, 10, 30 MG/KG/D IN DISTILLED WATER FOR 24 MO (STUDY DURATION: 110 WK), Dose: 0, 3, 10, 30 MG/KG/D IN DISTILLED WATER FOR 24 MO (STUDY DURATION: 110 WK)): inactive; negative
- carcinogen call (Species: RAT, Strain/Sex: F344/MALE, Route: GAVAGE, Dose: 0, 3, 10, 30 MG/KG/D IN DISTILLED WATER FOR 24 MO (STUDY DURATION: 110 WK), Dose: 0, 3, 10, 30 MG/KG/D IN DISTILLED WATER FOR 24 MO (STUDY DURATION: 110 WK)): inactive; negative

SMILES: Cc1c([N+](=O)[O-])c(C)c([N+](=O)[O-])c(C(C)(C)C)c1[N+](=O)[O-]
- carcinogen call (Species: MOUSE, Strain/Sex: B6C3F1/FEMALE, Route: ORAL, Dose: 0, 0.075, 0.15% IN DIET FOR 80 WK (STUDY DURATION: 80 WK), Dose: 0, 0.075, 0.15% IN DIET FOR 80 WK (STUDY DURATION: 80 WK), Tumor Site: Type of Lesion: LIVER: ADENOMA): active; positive
- carcinogen call (Species: MOUSE, Strain/Sex: B6C3F1/MALE, Route: ORAL, Dose: 0, 0.075, 0.15% IN DIET FOR 80 WK (STUDY DURATION: 80 WK), Dose: 0, 0.075, 0.15% IN DIET FOR 80 WK (STUDY DURATION: 80 WK), Tumor Site: Type of Lesion: LIVER: ADENOMA, CARCINOMA, HARDERIAN GLAND: ADENOMA): active; positive
